Source: ChEMBL document CHEMBL1909046, “DrugMatrix in vitro pharmacology data”

What was measured:
[1] = biological target: T1, Progesterone receptor (Bos taurus, UniProt Q690N0); assay: DRUGMATRIX: Progesterone radioligand binding (ligand: [3H] R-5020); assay type: tissue-based, Uterus; settings: Not Active = under 50% inhibition at 10 µM
T1 sequence (Q690N0 whole entry): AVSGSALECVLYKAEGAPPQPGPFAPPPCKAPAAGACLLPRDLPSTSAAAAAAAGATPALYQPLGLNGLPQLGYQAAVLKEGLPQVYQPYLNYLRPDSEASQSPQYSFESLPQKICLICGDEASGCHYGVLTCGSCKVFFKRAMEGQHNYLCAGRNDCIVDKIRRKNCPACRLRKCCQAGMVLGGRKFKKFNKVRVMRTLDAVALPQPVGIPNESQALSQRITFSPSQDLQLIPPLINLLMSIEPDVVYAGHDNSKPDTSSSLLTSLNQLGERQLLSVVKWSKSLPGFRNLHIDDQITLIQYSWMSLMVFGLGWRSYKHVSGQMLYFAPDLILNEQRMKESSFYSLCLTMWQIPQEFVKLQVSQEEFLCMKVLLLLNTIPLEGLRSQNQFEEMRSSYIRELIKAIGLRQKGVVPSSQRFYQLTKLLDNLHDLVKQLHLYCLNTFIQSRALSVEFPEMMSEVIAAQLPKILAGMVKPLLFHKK

[2] = biological target: T2, Leukotriene C4 synthase (Cavia porcellus, UniProt A6XA80); assay type: tissue-based, Lung;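 further: enzyme inhibition assay of leukotriene C4 synthase, using LTA4 as the substrate; in other assays of this panel Not Active means under 50% inhibition at 10 µM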
T2 sequence (A6XA80 whole entry): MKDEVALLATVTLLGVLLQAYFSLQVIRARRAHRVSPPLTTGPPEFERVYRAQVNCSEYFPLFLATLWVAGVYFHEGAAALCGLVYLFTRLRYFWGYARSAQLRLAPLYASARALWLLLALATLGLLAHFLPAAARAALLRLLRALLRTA

[3] = biological target: T3, Caspase-1 (Homo sapiens, UniProt P29466); parameters: species or system Escherichia coli;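 further: Caspase-1 enzyme inhibition assay with a peptide substrate; in other assays of this panel Not Active means under 50% inhibition at 10 µM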
T3 sequence (P29466 whole entry): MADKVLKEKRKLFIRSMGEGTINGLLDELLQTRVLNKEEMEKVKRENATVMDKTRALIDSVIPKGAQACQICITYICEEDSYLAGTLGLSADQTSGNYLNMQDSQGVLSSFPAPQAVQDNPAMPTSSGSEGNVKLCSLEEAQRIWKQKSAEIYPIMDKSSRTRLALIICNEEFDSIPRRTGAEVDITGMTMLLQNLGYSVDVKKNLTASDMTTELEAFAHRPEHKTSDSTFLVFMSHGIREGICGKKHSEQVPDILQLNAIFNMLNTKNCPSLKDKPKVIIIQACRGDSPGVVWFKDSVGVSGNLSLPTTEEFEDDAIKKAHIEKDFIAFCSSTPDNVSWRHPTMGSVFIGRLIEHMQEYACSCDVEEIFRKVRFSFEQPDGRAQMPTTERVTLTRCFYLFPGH

[4] = biological target: Carbonic anhydrase 2 (Homo sapiens, UniProt P00918); assay: DRUGMATRIX: Carbonic Anhydrase II enzyme inhibition (substrate: 4-Nitrophenyl acetate (4-NPA)); assay type: tissue-based, Erythrocyte; settings: erythrocyte; Not Active = under 50% inhibition at 10 µM
[5] = biological target: Substance-P receptor (Homo sapiens, UniProt P25103); assay type: cell membranes, CHO, Membrane; settings: cho; further: in other assays of this panel Not Active means under 50% inhibition at 10 µM
Substance-P receptor, sequence (P25103 whole entry): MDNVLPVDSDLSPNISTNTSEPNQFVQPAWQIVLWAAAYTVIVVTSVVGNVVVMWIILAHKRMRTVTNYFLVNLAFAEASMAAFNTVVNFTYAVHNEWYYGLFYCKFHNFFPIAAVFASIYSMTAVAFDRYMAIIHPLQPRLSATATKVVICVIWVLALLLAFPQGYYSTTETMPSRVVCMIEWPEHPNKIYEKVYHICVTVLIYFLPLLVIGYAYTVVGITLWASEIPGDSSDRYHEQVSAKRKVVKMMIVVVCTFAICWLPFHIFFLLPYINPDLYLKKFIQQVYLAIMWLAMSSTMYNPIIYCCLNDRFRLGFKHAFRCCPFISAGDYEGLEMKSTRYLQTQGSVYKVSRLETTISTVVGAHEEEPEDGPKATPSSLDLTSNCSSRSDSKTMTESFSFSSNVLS

[6] = biological target: Melanocortin receptor 4 (Homo sapiens, UniProt P32245); assay type: cell membranes, HEK293, Membrane; settings: hek293; further: in other assays of this panel Not Active means under 50% inhibition at 10 µM
Melanocortin receptor 4, sequence (P32245 whole entry): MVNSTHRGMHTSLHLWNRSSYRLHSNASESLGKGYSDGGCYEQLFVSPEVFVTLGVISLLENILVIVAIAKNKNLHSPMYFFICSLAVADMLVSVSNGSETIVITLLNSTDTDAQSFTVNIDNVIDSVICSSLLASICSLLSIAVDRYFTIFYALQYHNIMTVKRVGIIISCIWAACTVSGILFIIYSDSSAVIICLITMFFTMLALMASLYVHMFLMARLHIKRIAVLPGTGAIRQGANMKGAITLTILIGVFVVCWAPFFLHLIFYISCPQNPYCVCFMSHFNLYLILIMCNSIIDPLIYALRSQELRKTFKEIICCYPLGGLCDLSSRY

N[C@@H]1[C@H]2CN(c3nc4c(cc3F)c(=O)c(C(=O)O)cn4-c3ccc(F)cc3F)C[C@@H]12 [TROVAFLOXACIN]
Not Active: IC50 [1] | IC50 [2] | IC50 [3] | IC50 [4] | IC50 [5] | IC50 [6]

N#CC(C#N)=Cc1ccc(O)c(O)c1 [TYRPHOSTIN 23]
Not Active: IC50 [1] | IC50 [2] | IC50 [3] | IC50 [4] | IC50 [5] | IC50 [6]

CC[C@]1(O)C[C@H]2CN(CCc3c([nH]c4ccccc34)[C@@](C(=O)OC)(c3cc4c(cc3OC)N(C=O)[C@H]3[C@@](O)(C(=O)OC)[C@H](OC(C)=O)[C@]5(CC)C=CCN6CC[C@]43[C@@H]65)C2)C1 [VINCRISTINE]
Not Active: IC50 [1] | IC50 [2] | IC50 [3] | IC50 [4] | IC50 [5] | IC50 [6]

CCCOc1ccccc1-c1nc2nn[nH]c2c(=O)[nH]1 [ZAPRINAST]
Not Active: IC50 [1] | IC50 [2] | IC50 [3] | IC50 [4] | IC50 [5] | IC50 [6]

SODIUM NITROPRUSSIDE
Not Active: IC50 [1] | Ki [1] | IC50 [2] | Ki [2] | IC50 [3] | Ki [3] | IC50 [4] | Ki [4] | IC50 [5] | Ki [5] | IC50 [6] | Ki [6]
